# Data published in US20250312407A1, “PEPTIDE AND USE THEREOF” (AJINOMOTO CO., INC., priority 2019, published 2025).
# How the values were obtained:
# Format in all cases: in vivo, mouse
# [1] = system: male KK-Ay mice; assay: Insulin tolerance test (ITT); conditions: 30 mg/kg oral, insulin 0.5 U/kg s.c. 1 hr later, profile and ΔAUC vs vehicle group
# Protocol: The administration medium (0.5% methylcellulose; vehicle) or compound 1 (30 mg/kg) was orally administered to male KK-Ay mice (7 to 12 weeks old) that had been fasted from 17 o'clock the day before, and insulin (0.5 U/kg) was subcutaneously administered 1 hr later. Blood was collected from the tail vein before administration, and 15, 30, 60, 120 and 180 min after administration, and the blood glucose level was measured. The blood glucose level was also measured for compounds 2 to 6 by a similar method. The results of the area under curve (ΔAUC) of the blood glucose level profile calculated with the 0-minute value as the standard are shown in FIG. 3(b).
# [2] = system: male C57BL/6J mice; assay: Oral glucose tolerance test (OGTT); conditions: 30 mg/kg oral
# Protocol: The administration medium (0.5% methylcellulose; vehicle) or compound 1 (30 mg/kg) was orally administered to male C57BL/6J mice (7 weeks old) that had been fasted from 17 o'clock the day before, and 2 g/kg of glucose was orally administered by gavage 1 hr later. Blood was collected from the tail vein before administration, and 15, 30, 60, 120 and 180 min after administration, and the blood glucose level was measured.
# The blood glucose level after glucose loading remained low in the compound 1 administration group from 30 min after loading and thereafter. The results of the area under curve (ΔAUC) of the blood glucose level profile calculated with the 0-minute value as the standard are shown in FIG. 2.
# [3] = system: FGF21; assay: FGF21 secretion promoting action (plasma FGF21 concentration); conditions: 30 mg/kg by gavage, C57BL/6J mice, portal vein, 120 min after administration, vs vehicle group
# Protocol: The administration medium (0.5% methylcellulose; vehicle) or compound 1 (30 mg/kg) was administered by gavage to male C57BL/6J mice (8 weeks old) that had been under fasting treatment for 6 hr. Blood was collected from the portal vein before administration and 120 min after administration, and the plasma FGF21 concentration was measured.
# [4] = system: ornithine/citrulline ratio; assay: Anti-fatigue action (plasma ornithine/citrulline ratio); conditions: 30 mg/kg by gavage, C57BL/6J mice, portal vein, 120 min after administration, vs vehicle group
# Protocol: The administration medium (0.5% methylcellulose; vehicle) or compound 1 (30 mg/kg) was administered by gavage to male C57BL/6J mice (7 weeks old) that had been under fasting treatment overnight. Blood was collected from the portal vein 120 min after administration, and the plasma ornithine and citrulline concentrations were measured. The ornithine/citrulline ratio in plasma is known as a biomarker that increases during fatigue such as chronic fatigue syndrome and the like (e.g., Yamano E et al., “Index markers of chronic fatigue syndrome with dysfunction of TCA and urea cycles”, Scientific Reports, 2016 Oct. 11; 6:34990, doi: 10.1038/srep34990, which is incorporated herein by reference in its entirety).
# [5] = system: male KK-Ay mice; assay: Intestine permeability (plasma FD-4 after oral FITC-dextran); conditions: 100 mg/kg oral, vs vehicle group
# Protocol: The administration medium (0.5% methylcellulose; vehicle) or compound 1 (100 mg/kg) was orally administered to male KK-Ay mice (11 weeks old) that had been fasted from 10 o'clock the day before, and FITC-dextran (FD-4) (300 mg/kg) was orally administered 1 hr later. Blood was collected from the tail vein 1 hr and 2 hr after FD-4 administration, and the plasma FD-4 concentration was measured.
# [6] = system: acetyl-L-carnitine; assay: Anti-stress, neuroprotective action (plasma acetyl-L-carnitine after restraint stress); conditions: 30 mg/kg oral after 3 hr restraint stress, C57BL/6J mice, 120 min after administration, vs vehicle group
# Text: Male C57BL/6J mice (9-week-old) that had been under fasting treatment overnight were housed in a restraint stress cage for mice, and allowed to stand for 3 hr. […] Acetyl-L-carnitine is an endogenous metabolite known to have an anti-stress and neuroprotective action (e.g., Nasca C et al., “L-acetylcarnitine causes rapid antidepressant effects through the epigenetic induction of mGlu2 receptors”, Proc. Natl. Acad. Sci. USA, 2013 Mar. 19; 110 (12): 4804-4809; and Kazak F et al., “Neuroprotective effects of acetyl-1-carnitine on lipopolysaccharide-induced neuroinflammation in mice: Involvement of brain-derived neurotrophic factor”, Neuroscience Letters, 2017 Sep. 29; 658:32-36, which are incorporated herein by reference in their entireties).
sequence,measurement,setting,value
LIVTQTMKGL (Designed peptide) [compound 1],"blood glucose level after insulin (insulin sensitivity improving effect), ITT",[1],significant decrease in blood glucose
same,"area under curve (ΔAUC) of the blood glucose level profile, OGTT","[2]; 0-minute value as the standard, vs vehicle group",low value as compared with the vehicle group
same,blood glucose level after glucose loading,"[2]; 2 g/kg glucose 1 hr later, from 30 min after loading",remained low
same,blood FGF21 concentration,[3],increase in the blood FGF21 concentration was confirmed
same,blood ornithine/citrulline ratio,[4],decreased
same,blood FD-4 concentration,[5]; 1 hr after oral FD-4 (300 mg/kg),suppression of an increase in the blood FD-4 concentration was observed
same,blood FD-4 concentration,[5]; 2 hr after oral FD-4 (300 mg/kg),suppression of an increase in the blood FD-4 concentration was observed
same,blood acetyl-L-carnitine concentration,[6],increase in the blood acetyl-L-carnitine concentration was observed
